Source: patent publication US9511062B2, “Compacted rumen protected nutrient pellets and method of manufacture” (Qualitech, Inc., priority 2011, dated 2016)

Assays:
[1] = Rumen protected niacin, effect upon milk production; type: in vivo, Holstein cows; details: 12 g top-dressed on TMR twice daily (N12 / BN12)
Source text: Six multiparous rumen-cannulated Holstein cows (BW=656 kg) after peak lactation (128±23 days in milk) were assigned to 1 of 6 treatments in a completely randomized 6×6 Latin Square with an extra period to measure carry-over effects. Periods consisted of a 7-day (d 1-7) adaptation period followed by a 7-day (d 8-14) measurement period. Cows were fed according to NRC (2001) recommendations to meet or exceed requirements. Treatments were: CON (no niacin), INF (abomassal infusion of 12 g unprotected niacin (UN)), N12 (12 g UN), BN3 (3 g PN), BN6 (6 g PN), and BN12 (12 g PN). Treatments N12, BN3, BN6, and BN 12 were top-dressed on the Total Mixed Ration (TMR) twice daily. The daily dose of treatment INF was divided in 5 equal portions and infused during the day every 4 hours. Cows receiving treatments other than INF were infused with the same volume of water at the same time.

[2] = Rumen protected niacin, response to epinephrine (Epi) challenge; type: in vivo, Holstein cows
Source text: Niacin may modulate lipolytic responses in adipose tissue but is highly degradable in the rumen so that oral administration leads to unknown quantities absorbed. We determined responses to epinephrine (Epi) challenge as affected by three levels of protected niacin (PN) or unprotected niacin (UN) in the diet or infused abomasally.
Six multiparous rumen-cannulated Holstein cows (BW=656 kg; 128±23 days in milk) were used in a completely randomized 6×6 Latin Square with an extra period to quantify carryover effects. Periods consisted of 7 days for adaptation followed by 7 days for measurements. Cows were fed according to NRC (2001) recommendations. Treatments were: CON (no niacin), INF (abomassal infusion of 12 g UN), N12 (12 g UN), BN3 (3 g PN), BN6 (6 g PN), and BN12 (12 g PN). Treatments N12, BN3, BN6, and BN12 were top-dressed on the Total Mixed Ration (TMR) twice daily. Treatment INF was divided in 5 equal portions and infused every 4 hours. Cows receiving treatments other than INF were infused with the same volume of water at the same times.
On day 12, cows received an i.v, infusion of Epi (1.4 μg/kg BW). […] Total area under the curve (AUC) responses of nonesterified Fatty Acids (NEFA) and glucose concentrations in plasma were calculated using the trapezoidal rule.

O=C(O)c1cccnc1 [UN, niacin]
dry matter intake (DMI) [1]: 24.3 ± 1 kg
milk fat/protein ratio (F/P) ([1]; P=0.03): 1.15±0.09
Feed efficiency (FE=energy-corrected milk/DMI) ([1]; P=0.04): 1.5±0.1
Milk yield ([1]; P=0.06): 37.1 ± 2.3 kg
Time to peak NEFA concentration ([2]; 12 g top-dressed on TMR twice daily (N12 / BN12), i.v. Epi 1.4 μg/kg BW on day 12, plasma): 22.1 ± 3.2 min
glucose AUC ([2]; abomasal infusion of 12 g (INF) compared with N12, Epi challenge, P=0.04): greater AUC than N12
